One assay addresses T1, ALK (Homo sapiens, UniProt Q9UM73).
T1 construct: host or cells: baculovirus expression system
The experiment in a line: ALK Kinase Assay (ELISA/TRF, PLC-γ substrate). The class given is biochemical. To be noted: ALK Kinase Inhibition; read-out: ALK Potency. The procedure, abridged: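 Wells were coated with 10 μg/mL phospholipase C-γ substrate in TBS, and the reaction was started by adding 30 ng/ml ALK enzyme and run at 37° C for 15 minutes. Phosphorylated product was detected with Eu-N1-labeled PT66 antibody, and IC50 values came from sigmoidal variable-slope fits of percent inhibition against log concentration.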
A general note: In an ELISA, binding on a coated surface is turned into a signal by an enzyme label.

A further assay deals with T2, JAK2 (Homo sapiens, UniProt O60674).
T2 construct: host or cells: baculovirus expression system
The experiment in a line: Recombinant Human JAK2 Kinase Assay (TRF). To be noted: JAK2 Kinase Inhibition; read-out: JAK2 Potency. Type of assay: biochemical. The gist of the method:
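TRF read-out: Eu-N1 PY100 anti-phosphotyrosine antibody detects product. Enzyme is baculovirus-expressed JAK2 at 15 ng/ml; substrate is a biotinyl 15-mer peptide bound to Neutravidin-coated wells. Buffer 20 mM HEPES pH 7.2, 0.2 μM ATP, 1 mM MnCl2, 0.1% BSA, 2.5% DMSO final; 20 min, RT.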

Experimental findings from US8471005B2 (Cephalon, Inc., priority 2008, dated 2013) are described below.

T1 sequence (Q9UM73 19-1620): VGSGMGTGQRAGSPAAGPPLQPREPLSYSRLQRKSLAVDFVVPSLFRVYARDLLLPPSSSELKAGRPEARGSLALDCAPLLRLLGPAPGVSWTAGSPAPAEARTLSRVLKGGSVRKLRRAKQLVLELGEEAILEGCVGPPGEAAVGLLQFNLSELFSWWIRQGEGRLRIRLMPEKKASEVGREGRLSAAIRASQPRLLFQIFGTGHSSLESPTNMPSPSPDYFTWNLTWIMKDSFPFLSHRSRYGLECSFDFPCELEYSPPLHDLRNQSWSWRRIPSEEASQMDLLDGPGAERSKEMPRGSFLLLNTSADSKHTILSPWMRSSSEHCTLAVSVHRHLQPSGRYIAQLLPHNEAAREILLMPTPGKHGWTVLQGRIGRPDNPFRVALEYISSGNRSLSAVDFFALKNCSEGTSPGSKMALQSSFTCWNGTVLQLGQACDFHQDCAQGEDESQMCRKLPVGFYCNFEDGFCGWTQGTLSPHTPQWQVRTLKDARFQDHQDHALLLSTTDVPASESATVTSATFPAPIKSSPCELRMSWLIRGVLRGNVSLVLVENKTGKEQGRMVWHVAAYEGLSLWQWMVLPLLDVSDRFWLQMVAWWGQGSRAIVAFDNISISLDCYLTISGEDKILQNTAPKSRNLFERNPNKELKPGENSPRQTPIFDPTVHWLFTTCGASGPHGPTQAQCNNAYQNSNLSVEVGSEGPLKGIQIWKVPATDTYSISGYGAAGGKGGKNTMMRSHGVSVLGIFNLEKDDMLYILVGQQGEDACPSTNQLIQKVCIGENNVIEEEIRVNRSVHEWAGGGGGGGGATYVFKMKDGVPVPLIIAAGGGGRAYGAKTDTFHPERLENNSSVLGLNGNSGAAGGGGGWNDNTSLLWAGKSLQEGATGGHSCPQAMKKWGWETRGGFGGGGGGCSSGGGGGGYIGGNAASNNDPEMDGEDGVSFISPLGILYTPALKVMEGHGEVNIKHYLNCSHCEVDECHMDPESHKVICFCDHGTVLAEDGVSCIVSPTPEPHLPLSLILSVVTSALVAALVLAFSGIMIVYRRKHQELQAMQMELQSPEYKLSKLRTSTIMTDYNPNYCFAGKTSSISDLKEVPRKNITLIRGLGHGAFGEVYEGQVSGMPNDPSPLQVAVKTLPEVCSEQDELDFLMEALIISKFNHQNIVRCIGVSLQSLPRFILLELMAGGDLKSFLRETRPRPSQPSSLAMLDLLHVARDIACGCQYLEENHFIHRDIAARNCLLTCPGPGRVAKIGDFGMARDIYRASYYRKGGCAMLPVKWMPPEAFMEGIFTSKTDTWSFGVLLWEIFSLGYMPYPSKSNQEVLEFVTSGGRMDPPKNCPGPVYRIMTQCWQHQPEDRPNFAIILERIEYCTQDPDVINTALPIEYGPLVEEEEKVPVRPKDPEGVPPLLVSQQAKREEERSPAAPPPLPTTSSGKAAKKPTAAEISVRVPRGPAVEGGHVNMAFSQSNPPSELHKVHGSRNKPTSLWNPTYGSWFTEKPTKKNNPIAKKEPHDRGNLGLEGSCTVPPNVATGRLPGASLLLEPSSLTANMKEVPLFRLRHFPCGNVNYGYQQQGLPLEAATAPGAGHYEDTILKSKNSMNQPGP
T2 sequence (O60674 whole entry): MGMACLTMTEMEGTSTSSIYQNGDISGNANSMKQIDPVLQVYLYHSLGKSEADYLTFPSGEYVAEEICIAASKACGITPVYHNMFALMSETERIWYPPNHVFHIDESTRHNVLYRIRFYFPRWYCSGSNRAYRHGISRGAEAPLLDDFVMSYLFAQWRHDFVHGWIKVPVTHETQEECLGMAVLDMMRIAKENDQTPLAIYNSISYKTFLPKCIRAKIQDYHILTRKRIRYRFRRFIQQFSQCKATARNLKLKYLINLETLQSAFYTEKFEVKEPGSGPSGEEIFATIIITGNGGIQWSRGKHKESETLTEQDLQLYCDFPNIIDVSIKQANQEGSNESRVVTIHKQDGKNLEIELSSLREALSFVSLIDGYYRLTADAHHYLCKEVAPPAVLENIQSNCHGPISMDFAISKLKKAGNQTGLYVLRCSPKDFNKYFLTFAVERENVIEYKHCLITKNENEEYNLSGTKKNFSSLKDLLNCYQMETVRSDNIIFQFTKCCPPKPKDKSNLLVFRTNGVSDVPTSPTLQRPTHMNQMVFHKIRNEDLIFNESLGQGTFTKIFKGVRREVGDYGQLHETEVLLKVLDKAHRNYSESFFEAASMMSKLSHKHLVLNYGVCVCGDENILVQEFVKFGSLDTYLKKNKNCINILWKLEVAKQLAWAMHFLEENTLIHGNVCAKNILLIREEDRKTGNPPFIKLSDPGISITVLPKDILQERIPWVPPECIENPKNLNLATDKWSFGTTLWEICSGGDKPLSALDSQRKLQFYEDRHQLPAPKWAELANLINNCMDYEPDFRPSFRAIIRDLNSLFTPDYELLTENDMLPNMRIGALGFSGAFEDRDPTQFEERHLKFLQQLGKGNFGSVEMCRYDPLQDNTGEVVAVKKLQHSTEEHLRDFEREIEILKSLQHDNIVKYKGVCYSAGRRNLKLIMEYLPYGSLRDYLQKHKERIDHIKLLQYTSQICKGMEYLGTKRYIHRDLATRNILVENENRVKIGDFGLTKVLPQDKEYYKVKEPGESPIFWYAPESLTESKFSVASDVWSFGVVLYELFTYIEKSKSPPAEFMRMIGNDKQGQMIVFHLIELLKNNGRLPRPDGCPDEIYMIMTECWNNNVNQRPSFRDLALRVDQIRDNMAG

With `COc1cc(N2CCN(C[C@H](C)O)CC2)c(F)cc1Nc1ncc2ccc(-c3ccccc3N(C)S(C)(=O)=O)n2n1` [Example 1479, N-[2-(2-{5-Fluoro-4-[4-((S)-2-hydroxy-propyl)-piperazin-1-yl]-2-methoxy-phenylamino}-pyrrolo[2,1-f][1,2,4]triazin-7-yl)-phenyl]-N-methyl-methanesulfonamide], the IC50 on ALK was under 100 nM; at JAK2, 100 to 1000 nM.

Consider `COc1cc(N2CCN(C[C@H](C)O)CC2)c(F)cc1Nc1ncc2ccc(-c3ccccc3OC)n2n1` [Example 1480, (S)-1-(4-{2-Fluoro-5-methoxy-4-[7-(2-methoxy-phenyl)-pyrrolo[2,1-f][1,2,4]triazin-2-ylamino]-phenyl}-piperazin-1-yl)-propan-2-ol], for which the IC50 was under 100 nM at ALK and 100 to 1000 nM at JAK2.

On to `COc1ccccc1-c1ccc2cnc(Nc3cc(F)c(N4CCN(C[C@H](C)O)CC4)cc3F)nn12` [Example 1481, (S)-1-(4-{2,5-Difluoro-4-[7-(2-methoxy-phenyl)-pyrrolo[2,1-f][1,2,4]triazin-2-ylamino]-phenyl}-piperazin-1-yl)-propan-2-ol], for which the IC50 on ALK and at JAK2 was under 100 nM throughout.

On to `C[C@H](O)CN1CCN(c2cc(F)c(Nc3ncc4ccc(-c5ccccc5N(C)S(C)(=O)=O)n4n3)cc2F)CC1` [Example 1482, N-[2-(2-{2,5-Difluoro-4-[4-((S)-2-hydroxy-propyl)-piperazin-1-yl]-phenylamino}-pyrrolo[2,1-f][1,2,4]triazin-7-yl)-phenyl]-N-methyl-methanesulfonamide], for which the IC50 on ALK is 100 to 1000 nM; on JAK2 it was under 100 nM.

For `CSc1cc(N2CCN(C[C@H](C)O)CC2)c(F)cc1Nc1ncc2ccc(-c3ccccc3N(C)S(C)(=O)=O)n2n1` [Example 1483, N-[2-(2-{5-Fluoro-4-[4-((S)-2-hydroxy-propyl)-piperazin-1-yl]-2-methylsulfanyl-phenylamino}-pyrrolo[2,1-f][1,2,4]triazin-7-yl)-phenyl]-N-methyl-methanesulfonamide], the IC50 is under 100 nM on ALK and 1000 to 10000 nM at JAK2.

Regarding `C[C@H](O)CN1CCN(c2cc([S@@+](C)[O-])c(Nc3ncc4ccc(-c5ccccc5N(C)S(C)(=O)=O)n4n3)cc2F)CC1` [Example 1484, (R,S)—N-[2-(2-{5-Fluoro-4-[4-((S)-2-hydroxy-propyl)-piperazin-1-yl]-2-methanesulfinyl-phenylamino}-pyrrolo[2,1-f][1,2,4]triazin-7-yl)-phenyl]-N-methyl-methanesulfonamide], the IC50 on ALK and on JAK2 was under 100 nM each time.

With `C[C@H](O)CN1CCN(c2cc([S@@+](C)[O-])c(Nc3ncc4ccc(-c5ccccc5N(C)S(C)(=O)=O)n4n3)cc2F)CC1` [Example 1485, (R,S)—N-[2-(2-{5-Fluoro-4-[4-((S)-2-hydroxy-propyl)-piperazin-1-yl]-2-methanesulfinyl-phenylamino}-pyrrolo[2,1-f][1,2,4]triazin-7-yl)-phenyl]-N-methyl-methanesulfonamide], the IC50 on ALK is 100 to 1000 nM; at JAK2, under 100 nM.

On to `COc1cc2c(cc1Nc1ncc3ccc(-c4ccccc4OC)n3n1)C(=O)CC1(CCN(C)CC1)O2` [Example 1491], for which the IC50 on ALK is under 100 nM; on JAK2, 100 to 1000 nM.

As for `Cc1cc2[nH]c(=O)oc2cc1Nc1ncc2ccc(-c3ccccc3N(C)S(C)(=O)=O)n2n1` [Example 1492, N-Methyl-N-{2-[2-(5-methyl-2-oxo-2,3-dihydro-benzoxazol-6-ylamino)-pyrrolo[2,1-f][1,2,4]triazin-7-yl]-phenyl}-methanesulfonamide], the IC50 on ALK and at JAK2 was 100 to 1000 nM each time.

Take `Cc1c(Nc2ncc3ccc(-c4ccccc4N(C)S(C)(=O)=O)n3n2)ccc2[nH]c(=O)oc12` [Example 1493, N-Methyl-N-{2-[2-(7-methyl-2-oxo-2,3-dihydro-benzoxazol-6-ylamino)-pyrrolo[2,1-f][1,2,4]triazin-7-yl]-phenyl}-methanesulfonamide]: the IC50 at ALK and at JAK2 was 100 to 1000 nM in each case.

Regarding `COc1ccccc1-c1ccc2cnc(C#N)nn12` [Example 1494, 7-(2-Methoxy-phenyl)-pyrrolo[2,1-f][1,2,4]triazine-2-carbonitrile], the IC50 at ALK and at JAK2 was over 10000 nM in each case.

For the compound `COc1ccccc1-c1ccc2cnc(C(N)=O)nn12` [Example 1495, 7-(2-Methoxy-phenyl)-pyrrolo[2,1-f][1,2,4]triazine-2-carboxylic acid amide], the IC50 at ALK and on JAK2 was over 10000 nM throughout.

`COc1cc2c(cc1Nc1ncc3ccc(-c4ccccc4N(C)S(C)(=O)=O)n3n1)CCC1(CCN(C[C@H](C)O)CC1)O2` [Example 1496, N-{2-[2-({1′-[(25)-2-hydroxypropyl]-7-methoxy-3,4-dihydrospiro[chromene-2,4′-piperidin]-6-yl}amino)pyrrolo[2,1-f][1,2,4]triazin-7-yl]phenyl}-N-methylmethanesulfonamide]: the IC50 at ALK was under 100 nM; on JAK2 it was 1000 to 10000 nM.

`CN1CCN(c2ccc(Nc3ncc4ccc(-c5ccc(CO)cc5)n4n3)cc2)CC1` [Example 1497, (4-{2-[4-(4-Methyl-piperazin-1-yl)-phenylamino]-pyrrolo[2,1-f][1,2,4]triazin-7-yl}-phenyl)-methanol]: the IC50 on ALK and on JAK2 was under 100 nM in each case.

With `CN1CCN(c2ccc(Nc3ncc4ccc(-c5cccc(CO)c5)n4n3)cc2)CC1` [Example 1498, (3-{2-[4-(4-Methyl-piperazin-1-yl)-phenylamino]-pyrrolo[2,1-f][1,2,4]triazin-7-yl}-phenyl)-methanol], the IC50 on ALK and at JAK2 was under 100 nM throughout.

On to `COCc1ccc(-c2ccc3cnc(Nc4ccc(N5CCN(C)CC5)cc4)nn23)cc1` [Example 1499, [7-(4-Methoxymethyl-phenyl)-pyrrolo[2,1-f][1,2,4]triazin-2-yl]-[4-(4-methyl-piperazin-1-yl)-phenyl]-amine], for which the IC50 was 100 to 1000 nM at ALK and under 100 nM on JAK2.

Regarding `COCc1ccccc1-c1ccc2cnc(Nc3ccc(N4CCN(C)CC4)cc3)nn12` [Example 1500, [7-(2-Methoxymethyl-phenyl)-pyrrolo[2,1-f][1,2,4]triazin-2-yl]-[4-(4-methyl-piperazin-1-yl)-phenyl]-amine], the IC50 at ALK and on JAK2 was under 100 nM in each case.

As to `COc1ccccc1-c1ccc2cnc(-c3nnc(C)[nH]3)nn12` [Example 1501, 7-(2-Methoxy-phenyl)-2-(5-methyl-4H-[1,2,4]triazol-3-yl)-pyrrolo[2,1-f][1,2,4]triazine], the IC50 at ALK and at JAK2 was over 10000 nM in each case.

For `COc1ccccc1-c1ccc2cnc(-c3nnn[nH]3)nn12` [Example 1502, 7-(2-Methoxy-phenyl)-2-(1H-tetrazol-5-yl)-pyrrolo[2,1-f][1,2,4]triazine], the IC50 at ALK and on JAK2 was over 10000 nM in each case.

As for `COCc1cccc(-c2ccc3cnc(Nc4ccc(N5CCN(C)CC5)cc4)nn23)c1` [Example 1503, [7-(3-Methoxymethyl-phenyl)-pyrrolo[2,1-f][1,2,4]triazin-2-yl]-[4-(4-methyl-piperazin-1-yl)-phenyl]-amine], the IC50 was 100 to 1000 nM on ALK and under 100 nM on JAK2.
